According to patent publication US4859678A, “N-oxide ergolines as antihypertensive agents” (Farmitalia Carlo Erba, priority 1987, dated 1989):

Test system: mean blood pressure
Experiment: Antihypertensive activity: intra-arterial mean blood pressure after single oral dose in rats
Format: in vivo
Conditions: rat, p.o.; for ED25 (dose lowering mean blood pressure of 25 mmHg) / ED (25 mmHg): single dose, calculated from dose-response regression line; for Decrease in mean blood pressure at 15' / Decrease in mean blood pressure at 30' / Decrease in mean blood pressure at 1 h / Decrease in mean blood pressure at 2 h / Decrease in mean blood pressure at 3 h / Decrease in mean blood pressure at 4 h / Decrease in mean blood pressure at 5 h / Decrease in mean blood pressure at 6 h / Decrease in mean blood pressure at 8 h / Decrease in mean blood pressure at 10 h / Decrease in mean blood pressure at 12 h: ex 40 0.125, Example 1 0.5, ex 41 0.25, Example 2 1 mg/kg; for Decrease in mean blood pressure at 15': 15 min, not significant (**): Example 1; for Decrease in mean blood pressure at 30': 30 min; for Decrease in mean blood pressure at 6 h: not significant (**): ex 41; for Decrease in mean blood pressure at 8 h / Decrease in mean blood pressure at 10 h / Decrease in mean blood pressure at 12 h: not significant (**): ex 40, ex 41; for ED (25 mmHg): po, read-out: ED25 (dose lowering mean blood pressure of 25 mmHg)
Protocol: Intrarterial measurements of mean blood pressure (MBP) were performed through catheters (PE 50, Clay Adams) implanted in the rat right carotid artery under halothane anesthesia. Twenty four hours after surgery, the animals were placed in Ballman cages and the arterial cannula was connected via a pressure transducer to a Beckman blood pressure recorder for continuous monitoring of mean blood pressure. MBP was recorded before the oral administration (basal values) and at 15-30-60-120-240 minutes until 12 hours after treatment. Groups of 7 to 8 rats were orally treated with a single dose of the test compound of vehicle, methocel 0.5% w/v (0.2 ml/100 g b.w.). The ED25 was calculated for each compound from the dose-response regression line.
As reference standard drugs, two prior art ergoline derivatives described by EP 0126968 were also tested.
In fact, the mean blood pressure decrease induced by the two derivatives of the present invention was still significant 10 to 12 hours after dosing, whereas with the prior art compounds the hypotensive effect lasted only 5 to 6 hours. The oral orientative acute toxicity (LD50) in mice (evaluated in the Irwin test) of the compounds of the formula I was higher than 800 mg/kg.

| Molecule | ED25 (dose lowering mean blood pressure of 25 mmHg) [mg/Kg^-1] | Decrease in mean blood pressure at 15' | Decrease in mean blood pressure at 30' | Decrease in mean blood pressure at 1 h | Decrease in mean blood pressure at 2 h | Decrease in mean blood pressure at 3 h | Decrease in mean blood pressure at 4 h | Decrease in mean blood pressure at 5 h | Decrease in mean blood pressure at 6 h | Decrease in mean blood pressure at 8 h | Decrease in mean blood pressure at 10 h | Decrease in mean blood pressure at 12 h | ED (25 mmHg) [mg/kg] |
| --- | --- | --- | --- | --- | --- | --- | --- | --- | --- | --- | --- | --- | --- |
| CN1C[C@H](Cn2ccc(=O)[nH]c2=O)C=C2c3cccc4[nH]cc(c34)C[C@H]21 [Standard, ex 40 of EP 0126968, 1-[(6-methy -Δ-9,10-ergolen-8β-yl)methyl]-2,4-(1H,3H)dihydro-pyrimidine diole] | 0.046 | -22.9 ΔmmHg | -34.5 ΔmmHg | -33.9 ΔmmHg | -37.3 ΔmmHg | -34.5 ΔmmHg | -42.7 ΔmmHg | -28.9 ΔmmHg | -25.5 ΔmmHg | -10.5 ΔmmHg | -7.3 ΔmmHg | -6.7 ΔmmHg | – |
| C[N+]1([O-])C[C@H](CN2CC(=O)NC2=O)C=C2c3cccc4[nH]cc(c34)C[C@H]21 (stereo partly drawn) [Example 2, 1-[(6-methyl -Δ-9,10-ergolen-8β-yl)methyl]-2,4-imidazolidinedione-N6-oxide] | – | -23.1 ΔmmHg | -27.5 ΔmmHg | -35.9 ΔmmHg | -34.1 ΔmmHg | -35.0 ΔmmHg | -38.4 ΔmmHg | -36.5 ΔmmHg | -34.1 ΔmmHg | -27.8 ΔmmHg | -22.5 ΔmmHg | -16.2 ΔmmHg | 0.198 |
| 1-[6-methyl -Δ- 9,10-ergolen -8β- yl)methyl]-2,4-(1H,3H)dihydro-pyrimidinedione-N6-oxide [Example 1] | 0.050 | -12.2 ΔmmHg | -21.0 ΔmmHg | -32.2 ΔmmHg | -35.5 ΔmmHg | -45.1 ΔmmHg | -55.1 ΔmmHg | -58.5 ΔmmHg | -54.3 ΔmmHg | -44.3 ΔmmHg | -35.5 ΔmmHg | -27.2 ΔmmHg | – |
| CN1C[C@H](CN2CC(=O)NC2=O)C=C2c3cccc4[nH]cc(c34)C[C@H]21 [Standard, ex 41 of EP 0126968, 1-[(6-methyl-Δ-9,10-ergolen-8β-yl)methyl]-2,4-imidazolidinedione] | – | -26.8 ΔmmHg | -31.4 ΔmmHg | -29.6 ΔmmHg | -37.5 ΔmmHg | -35.7 ΔmmHg | -31.4 ΔmmHg | -15.7 ΔmmHg | -14.6 ΔmmHg | -2.5 ΔmmHg | -6.5 ΔmmHg | -9.4 ΔmmHg | 0.19 |
